Test results published in paper PMC10938783, “A novel pan-PI3K inhibitor KTC1101 synergizes with anti-PD-1 therapy by targeting tumor suppression and immune activation” (Molecular Cancer, 2024).

Test system: B16 cells gene expression
Test: RNA-Seq (DEGs, GSEA, heatmaps) of B16 cells
Details: B16 cells, KTC 0.2μM
[1] = GSEA gene set HALLMARK_PI3K_AKT_MTOR_SIGNALING
[2] = GSEA gene set HALLMARK_PROTEIN_SECRETION
[3] = GSEA gene set HALLMARK_REACTIVE_OXIGEN_SPECIES_PATHWAY
[4] = GSEA gene set HALLMARK_SPERMATOGENESIS
[5] = GSEA gene set HALLMARK_TGF_BETA_SIGNALING
[6] = GSEA gene set HALLMARK_TNFA_SIGNALING_VIA_NFKB
[7] = GSEA gene set HALLMARK_UNFOLDED_PROTEIN_RESPONSE
[8] = GSEA gene set HALLMARK_UV_RESPONSE_DN
[9] = GSEA gene set HALLMARK_UV_RESPONSE_UP
[10] = GSEA gene set HALLMARK_WNT_BETA_CATENIN_SIGNALING
[11] = GSEA gene set HALLMARK_XENOBIOTIC_METABOLISM

## COc1cc(N)cc2c1nc(C(F)F)n2-c1nc(N2CCCOCC2)nc(N2CCOCC2)n1 [KTC1101, 2-(difluoromethyl)-4-methoxy-1-(4-morpholino-6-(1,4-oxazepan-4-yl)-1,3,5-triazin-2-yl)-1H-benzo[d]imidazol-6-amine]
GSEA gene set HALLMARK_PEROXISOME
  enrichmentScore: -0.395
[1]
  NES: -2.189
  enrichmentScore: -0.5044
[2]
  NES: -1.203
  enrichmentScore: -0.2769
[3]
  NES: -1.95
  enrichmentScore: -0.5432
[4]
  NES: -1.401
  enrichmentScore: -0.3536
[5]
  NES: 1.944
  enrichmentScore: 0.6123
[6]
  NES: 2.211
  enrichmentScore: 0.5723
[7]
  NES: -1.548
  enrichmentScore: -0.347
[8]
  NES: 1.23
  enrichmentScore: 0.3315
[9]
  NES: 1.315
  enrichmentScore: 0.3557
[10]
  NES: 0.901
  enrichmentScore: 0.3071
[11]
  NES: -1.2042
  enrichmentScore: -0.2641
GSEA KEGG mmu00010
  NES: Glycolysis / Gluconeogenesis: -1.905
  enrichmentScore: Glycolysis / Gluconeogenesis: -0.5183
GSEA KEGG mmu00020
  NES: Citrate cycle (TCA cycle): -1.91
  enrichmentScore: Citrate cycle (TCA cycle): -0.5694
GSEA KEGG mmu00030
  NES: Pentose phosphate pathway: -1.779
  enrichmentScore: Pentose phosphate pathway: -0.5767
GSEA KEGG mmu00051
  NES: Fructose and mannose metabolism: -1.345
  enrichmentScore: Fructose and mannose metabolism: -0.4104
GSEA KEGG mmu00052
  NES: Galactose metabolism: -1.484
  enrichmentScore: Galactose metabolism: -0.4712
GSEA KEGG mmu00190
  NES: Oxidative phosphorylation: -2.112
  enrichmentScore: Oxidative phosphorylation: -0.4855
GSEA KEGG mmu00230
  NES: Purine metabolism: 1.524
  enrichmentScore: Purine metabolism: 0.4484
GSEA KEGG mmu00240
  NES: Pyrimidine metabolism: -1.587
  enrichmentScore: Pyrimidine metabolism: -0.5015
GSEA KEGG mmu00250
  NES: Alanine, aspartate and glutamate metabolism: -1.481
  enrichmentScore: Alanine, aspartate and glutamate metabolism: -0.506
GSEA KEGG mmu00260
  NES: Glycine, serine and threonine metabolism: -2.025
  enrichmentScore: Glycine, serine and threonine metabolism: -0.643
GSEA KEGG mmu00270
  NES: Cysteine and methionine metabolism: -1.68
  enrichmentScore: Cysteine and methionine metabolism: -0.4743
GSEA KEGG mmu00280
  NES: Valine, leucine and isoleucine degradation: -1.453
  enrichmentScore: Valine, leucine and isoleucine degradation: -0.399
GSEA KEGG mmu00330
  NES: Arginine and proline metabolism: -1.547
  enrichmentScore: Arginine and proline metabolism: -0.474
GSEA KEGG mmu00480
  NES: Glutathione metabolism: -1.885
  enrichmentScore: Glutathione metabolism: -0.5172
GSEA KEGG mmu00520
  NES: Amino sugar and nucleotide sugar metabolism: -1.225
  enrichmentScore: Amino sugar and nucleotide sugar metabolism: -0.3367
GSEA KEGG mmu00561
  NES: Glycerolipid metabolism: -1.232
  enrichmentScore: Glycerolipid metabolism: -0.3383
GSEA KEGG mmu00565
  NES: Ether lipid metabolism: -1.318
  enrichmentScore: Ether lipid metabolism: -0.4355
GSEA KEGG mmu00620
  NES: Pyruvate metabolism: -1.8611
  enrichmentScore: Pyruvate metabolism: -0.5447
GSEA KEGG mmu00630
  NES: Glyoxylate and dicarboxylate metabolism: -2.109
  enrichmentScore: Glyoxylate and dicarboxylate metabolism: -0.6578
GSEA KEGG mmu00640
  NES: Propanoate metabolism: -1.418
  enrichmentScore: Propanoate metabolism: -0.4326
GSEA KEGG mmu00900
  NES: Terpenoid backbone biosynthesis: -2.318
  enrichmentScore: Terpenoid backbone biosynthesis: -0.7921
GSEA KEGG mmu00983
  NES: Drug metabolism - other enzymes: -1.978
  enrichmentScore: Drug metabolism - other enzymes: -0.5867
GSEA KEGG mmu01200
  NES: Carbon metabolism: -2.129
  enrichmentScore: Carbon metabolism: -0.4924
GSEA KEGG mmu01210
  NES: 2-Oxocarboxylic acid metabolism: -1.574
  enrichmentScore: 2-Oxocarboxylic acid metabolism: -0.4801
GSEA KEGG mmu01212
  NES: Fatty acid metabolism: -1.192
  enrichmentScore: Fatty acid metabolism: -0.3243
GSEA KEGG mmu01230
  NES: Biosynthesis of amino acids: -2.742
  enrichmentScore: Biosynthesis of amino acids: -0.7082
GSEA KEGG mmu01232
  NES: Nucleotide metabolism: -1.799
  enrichmentScore: Nucleotide metabolism: -0.4975
GSEA KEGG mmu01240
  NES: Biosynthesis of cofactors: -1.22
  enrichmentScore: Biosynthesis of cofactors: -0.2823
GSEA KEGG mmu01521
  NES: EGFR tyrosine kinase inhibitor resistance: 1.545
  enrichmentScore: EGFR tyrosine kinase inhibitor resistance: 0.4546
